Laboratory results published in patent publication US8552013B2, “Heterocyclic compounds based on N6-substituted adenine, methods of their preparation, their use for preparation of drugs, cosmetic preparations and growth regulators, pharmaceutical preparations, cosmetic preparations and growth regulators containing these compounds” (USTAV Experimentalni Botaniky Akademie Ved Ceske Republiky, priority 2001, dated 2013).
Entries after “also recorded” stand apart in the source; their conditions may differ.

Columns and labels:
[1] = system: Rosa hybrida 'Pailin' explants; assay: Early shoot senescence of tissue cultured roses; assay type: in vivo; details: 10 μM in medium
Procedure: Rosa hybrida ‘Pailin’ (a cut rose) was cultured in 350 ml vessels with a screw on polycarbonate lid. Each culture vessel contained 100 ml autoclaved medium (120° C., 20 min). The cultures were maintained at 23±2° C. under a 16 h photoperiod at 40 μM m^−2 s^−1 PAR. The basal medium (BMR) contained Murashige and Skoog (1962) macroelements, microelements and vitamins, 36.7 mg/l NaFeEDTA, 50 mg/l NaFeEDDHA, 100 mg/l […] myo-inositol, 30 g/l sucrose, 100 mg/l glycine, 50 mg/l calcium pantothenate, 100 mg/l L-glutamine and 7 g/l agar-agar. This medium was supplemented with 10 μM BA, mT and mMeOBAP. The last 2 cytokinins were filter sterilised and added after autoclaving the medium in the vessels. The control medium didn't contain any cytokinin. After a culture period of 6 weeks, scoring senescence symptoms was started.

HOS = assay: Calcein AM cytotoxicity, HOS; assay type: cell-based; details: Homo sapiens, HOS, 72 h
[2] = system: Rosa hybrida (pot rose cultivar) explants; assay: In vitro and post vitro shoot multiplication and rooting of rose; assay type: in vivo
Procedure: The aim of this experiment was to test whether the new compounds are of practical use in tissue culture practice. The multiplication rate was investigated and the post vitro effects on rooting were examined. Rosa hybrida (pot rose cultivar) was cultured in 350 ml vessels with a screw on polycarbonate lid. Each culture vessel contained 100 ml autoclaved medium (120° C., 20 min). The cultures were maintained at 23±2° C. under a 16 h photoperiod at 40 μM m^−2 s^−1 PAR. The basal medium (BMR) contained Murashige and Skoog (1962) macroelements, microelements and vitamins, 95 μM NaFeEDTA, 555 μM myo-inositol, 111 mM sucrose, 1.332 mM glycine, 684 μM L-glutamine and 7 g/l agar. This medium was supplemented with 10 μM BA, mT, oMeOBAP or mMeOBAP (compound no. 14 and 15, respectively). The control medium didn't contain any cytokinin. After a culture period of 8 weeks, the number of induced shoots per explant was determined, as well as root number/explant and total root length/explant. The roots were removed and the explants (shoot clusters) were planted in unfertilised peat. After four weeks of acclimatising in a fog unit, root number and root length was determined.

human skin fibroblasts [3] = assay: Series of experiments on short-term effects on human skin fibroblasts, conclusion; assay type: cell-based; details: para at a dose of 40 μM
Procedure: (§1) All experiments were performed on early and mid passage cultures (about 20 to 40% lifespan completed) of normal human adult skin fibroblast line; designated ASF-2 & Senetek cell line (about 10-90% lifespan completed); designated as SF20. In order to check the effects of test compounds on senescent cells, late passage cells with more than 95% lifespan completed were used. ASF-2 and SF20 cell lines were established from a mammary skin biopsy obtained from a young, non-smoking and healthy […] at the time of breast reduction operation. Normal culture conditions of medium (DMEM) containing antibiotics, 10% foetal calf serum, and incubation at 37° C. with 95% humidity were used. The effects of the test chemicals were determined in the following conditions:
The experiments were performed to determine the effects of short-term treatment of ortho-topolin, meta-topolin, and para-topolin on cell attachment, survival, growth, apoptosis, actin cytoskeletal pattern, lysosomal activity, proteasomal activity and morphology of human skin fibroblasts in culture.

[4] = system: lysosomes of fibroblast cells; assay: Lysosomal activity, neutral red uptake; assay type: cell-based, human
Procedure: Neutral Red is preferentially taken up into the lysosomes of the cell. Fibroblast cells are maintained in culture and exposed to test compounds over a range of concentrations. The cultures are visually examined after 72 hours, and the number of viable cells and/or the total cell protein content determined, after 72 hours exposure, by the Neutral Red Uptake method. Advantage of Neutral Red assay is that it detects only viable cells. Any chemical having a localized effect upon the lysosomes will, therefore, result in an artificially low (or possibly high) reflection of cell viability and cell number. This factor does, however, make the system useful to detect those compounds which selectively affect the lysosomes, especially when it is used in conjunction with other tests capable of determining cell number.
The NR assay has been applied to evaluation and ranking the cytotoxicity of a spectrum of compounds. Individual wells of a 96-well tissue culture microtiter plate were inoculated with 0.2 ml of the appropriate media containing cells (usually 3×10^3 cells). After 1 to 2 days of incubation, the media were removed and replaced with unamended (control) medium or with medium amended with varied concentrations of the compound to be tested. After 3 days of exposure to the compound, media were removed and replaced with media containing 0.001% NR. The assay plate was then returned to the incubator for another 3 h to allow for uptake of the supravital dye into the lysosomes of viable cells. Thereafter, the media were removed and the cells were rapidly washed with 0.5% formaldehyde-1% CaCl2 followed by 0.2 ml of a solution of 1% acetic acid-50% ethanol to extract the dye from the cells. After 10 min at room temperature and a brief but rapid agitation on a microtiter plate shaker, the plates were transferred to a microplate spectrophotometer equipped with a 540-nm filter to measure the absorbance of the extracted dye.
The toxicities of the various compounds were compared with those of the control cultures by computing the data obtained.

proteasome = assay: Proteasomal chymotrypsin-like activity in cell extracts of treated cells; assay type: cell-based, human; details: 40, 80 and 200 μM
Procedure: Chymotrypsin-like activity in cell extracts prepared from treated and untreated cells was determined by in vitro degradation of oligopeptides by the proteasome.

human skin fibroblasts [5] = assay: Cell survival, MTT assay; assay type: cell-based; details: 3 days
Procedure: Cell survival after exposure to various doses was measured with the 3-(4,5 dimethylthiazol-2-yl)-2,5-diphenyltetrazolium bromide (MTT) assay. About 5,000 cells were seeded per well in a 96-well plate 24 h before the experiment. Cells were then treated with various doses of the compound to be tested. The wells were washed in Hank's and new medium was added. After three days, MTT (Sigma, M2128) was added at 0.5 mg/ml in medium. After 4 h, MTT was removed and isopropanol and HCl were added to dissolve the MTT crystals for 12-16 h. The absorbance at 595 nm was measured.

[6] = system: senescent human skin fibroblasts; assay: Numbers of surviving senescent cells (Coulter counter); assay type: cell-based
Procedure: Equal numbers of senescent cells were seeded in separate flasks and were treated with different concentrations of para-topolin. Cell numbers were determined by using a Coulter counter after trpsinization and resuspension of cells after 7 and 14 days of treatment.
Equal numbers of senescent cells were seeded in separate flasks and were treated with different concentrations of ortho-topolin. Cell numbers were determined by using a Coulter counter after trypsinisation and resuspension of cells, after 7 and 14 days of treatment.

human skin fibroblasts [7] = assay: beta-galactosidase staining of treated skin fibroblasts; assay type: cell-based; details: short-term growth treatment
[8] = system: human adult skin fibroblasts; assay: Short-term growth of human skin fibroblasts (cell counts, Giemsa); assay type: cell-based
Procedure: as §1
Short-term growth experiments were performed using 24-well tissue culture plates (growth area 1.9 cm^2). Freshly prepared cell suspensions from mass cultures of ASF-2 cells maintained in our labs were used. About 10,000 cells were seeded into 6 sets of 24-well plates. The cells were allowed to attach and stabilize for 24 hr in normal culture medium to achieve various final concentrations (range 40 to 500 μM). Culture medium was changed with the addition of test chemicals twice a week. The numbers of cells were counted after different days of treatment in 2 wells from each concentration of the test chemical, by following the normal method of cell trypsinization and counting using a Coultercounter. The third well in each category was fixed by cold methanol and stained with Giemsa stain for permanent record and for photography. The experiment was carried on for until the cultures became fully confluent and no further growth was possible.

[9] = system: senescent human skin fibroblasts; assay: Actin staining of senescent cells (FITC-Phalloidin); assay type: cell-based; details: after 3 days; meta 40 μM
Description: Actin staining: The pattern of cytoskeletal actin staining was studied by staining the cells with florescent ligand FITC-labelled Phalloidin, using a fluorescence microscope

[10] = system: senescent human skin fibroblasts; assay: Morphology of senescent cells; assay type: cell-based
Procedure: as §1
Senescent human skin fibroblasts were treated with various doses of para-topolin to see if this treatment could reverse age-related alterations in their morphology. […] The cells progressively became heterogeneous with large and flattened appearance.

human skin fibroblasts [11] = assay: Cell attachment of human skin fibroblasts; assay type: cell-based
Procedure: as §1, with “conditions: […]” for “conditions:”

[12] = Ex vitro, four weeks of acclimatising

c1ccc(CNc2ncnc3nc[nH]c23)cc1 [BAP, 6-benzylaminopurine, reference compound]
relative number of dead plants in relation to culture time [1]: looks like a sigmoid curve | IC50 (HOS): > 167 µM | shoot multiplication and rooting, in words ([2]; 10 μM): high shoot multiplication rate, but the shoots rooted badly | Root number per plant [2, 12]: 0.6 | Total root length per plant [2, 12]: 1.1 cm | Flower number per explant ([2]; In vitro, 10 μM, 8 weeks): 0.00 | Number of new shoots per explant ([2]; In vitro, 10 μM, 8 weeks): 3.8 | Root number per explant ([2]; In vitro, 10 μM, 8 weeks): 0.0 | Total root length per explant ([2]; In vitro, 10 μM, 8 weeks): 0.0 cm

Oc1ccc(CNc2ncnc3nc[nH]c23)cc1 [para-topolin, 6-(4-hydroxybenzylamino)purine]
conclusion on short-term effects on human skin fibroblasts (human skin fibroblasts [3]): beneficial anti-aging effects | neutral red staining pattern of cells ([4]; 40 μM-500 μM): autophagy | reduction in the macro-molecular turn over rate ([4]; 80 & 200 μM): 10-15% | proteasomal activity (chymotrypsin-like), removal of oxidized and abnormal proteins (proteasome): slight improvement; also recorded: observed in a dose dependent manner | reduction in cell survival (human skin fibroblasts [5]; 200-500 μM): 15-25% | dose until which not cytotoxic / no toxic effect on survival (MTT) (human skin fibroblasts [5]; range 0.01-500 μM): 100 µM | growth of senescent cells ([6]; 200 μM, 7 to 14 days): no further growth of the cells was observed | numbers of surviving senescent cells ([6]; 7 to 14 days of treatment): tolerant to para-topolin until 80 μM | number of prematurely senescent cells, beta-galactosidase staining (human skin fibroblasts [7]): did not show any increase | Cell growth (summary) ([8]; 40 μM): not affected | Cell growth lower ([8]; 40 μM): 10% | reduction of cell growth ([8]; 80 μM): over 40% | appearance of dermal cells, microscopic examination (summary) ([8]; 40 and 80 μM): Healthy appearances of the cells were maintained | Cell growth (summary) ([8]; 80, 200 and 500 μM): reduced | appearance of dermal cells, microscopic examination (summary) ([8]; 200 and 500 μM): toxic effects with enlargement in cell sizes | appearance of cells ([8]; 200 and 500 μM, eleven days): large in appearance, irregularly arranged and few in numbers | dose over which cytotoxicity of cells was seen ([8]; Giemsa pictures after eleven days): > 80 µM | Cellular growth at higher concentrations ([8]; para 200 to 500 μM after 11 days, ortho 200 and 400 μM after 7 days, meta 400 μM): almost a total inhibition | actin staining pattern in senescent cells [9]: no obvious differences | appearance of senescent cells on longer treatment ([10]; 14 days, ortho and meta 80 μM and above): began to shrink and die | appearance of senescent cells ([10]; after 7 days of treatment (para: 7 days and 14 days; meta: low concentrations)): subtle differences | Percent of cells attached, effect in words (human skin fibroblasts [11]; 6 hours, para 40 μM to 1 mM, ortho 40 to 400 μM, meta 40 to 200 μM): not affected to any significant extent | Overall cell attachment improved (summary) (human skin fibroblasts [11]; para at 40, 80, 100, 160, 250 and 500 μM): 10-40%
